Assay results: patent US20240408106A1, “BI-FUNCTIONAL COMPOUNDS AND METHODS FOR TARGETED UBIQUITINATION OF ANDROGEN RECEPTOR” (MONTELINO THERAPEUTICS, INC., priority 2021, published 2024)

tested on: human prostate cancer cell line, 22Rv1-Enz^R; test: 22Rv1-Enz^R cell proliferation assay; format: cell-based; settings: half maximal growth inhibition constant, 22Rv1-Enz^R cells, 6-day culture with cell media changed every 24 hours, read-out: 22Rv1-Enz^R proliferation assay GIC50
Description: The human prostate cancer cell line, 22Rv1 has been reported to express a high level of AR-V7. According to one procedure, 22Rv1 is seeded at 50,000 cells/well on a 24-well plate in quadruplicate and treated with test compounds in concentrations ranging up to 20 μM for four days. Standard culture media is RPMI-1640 supplemented with 10% fetal bovine serum. The test compound initially is dissolved in DMSO at 50 mM. This stock solution is then diluted as needed for the indicated concentrations. At the end of the four-day period, cells are harvested using 1% trypsin and counted using an automated cell counter.
Selected compounds may be tested in the human prostate cancer cell line, 22Rv1-Enz^R, as described in Geun Taek Lee et al., Molecular Cancer Therapeutics, 20:490-9 (2021). These procedures are similar to that described in Experimental Example 1, above, except that the assay conditions are a 6-day culture with cell media changed every 24 hours.
In the following Table (half maximal growth inhibition constant, GIC50): (+)-GIC50<200 μM; (++)-GIC50<100 μM; (+++)-GIC50<10 μM.

Row | IC50 | Compound
1 | < 10 µM | Cc1ncsc1-c1ccc([C@H](C)NC(=O)[C@@H]2C[C@@H](O)CN2C(=O)[C@@H](NC(=O)CN2CCN(C(=O)COc3c(-c4csc(N5CCOCC5)n4)ccc(F)c3F)CC2)C(C)(C)C)cc1 [Example 1, (2S,4R)-1-((S)-2-(2-(4-(2-(2,3-difluoro-6-(2-morpholinothiazol-4-yl)phenoxy)acetyl)piperazin-1-yl)acetamido)-3,3-dimethylbutanoyl)-4-hydroxy-N-((S)-1-(4-(4-methylthiazol-5-yl)phenyl)ethyl)pyrrolidine-2-carboxamide]
2 | < 100 µM | Cc1ncsc1-c1ccc([C@H](C)NC(=O)[C@@H]2C[C@@H](O)CN2C(=O)[C@@H](NC(=O)CCN2CCN(C(=O)COc3c(-c4csc(N5CCOCC5)n4)ccc(F)c3F)CC2)C(C)(C)C)cc1 [Example 2, (2S,4R)-1-((S)-2-(3-(4-(2-(2,3-difluoro-6-(2-morpholinothiazol-4-yl)phenoxy)acetyl)piperazin-1-yl)propanamido)-3,3-dimethylbutanoyl)-4-hydroxy-N-((S)-1-(4-(4-methylthiazol-5-yl)phenyl)ethyl) pyrrolidine-2-carboxamide]
3 | < 10 µM | Cc1ncsc1-c1ccc([C@H](C)NC(=O)[C@@H]2C[C@@H](O)CN2C(=O)[C@@H](NC(=O)CCC(=O)N2CCCC(NC(=O)COc3c(-c4csc(N5CCOCC5)n4)ccc(F)c3F)C2)C(C)(C)C)cc1 (stereo partly drawn) [Example 3, (2S,4R)-1-((2S)-2-(4-(3-(2-(2,3-difluoro-6-(2-morpholinothiazol-4-yl)phenoxy)acetamido)piperidin-1-yl)-4-oxobutanamido)-3,3-dimethylbutanoyl)-4-hydroxy-N-((S)-1-(4-(4-methylthiazol-5-yl)phenyl)ethyl)pyrrolidine-2-carboxamide]
4 | < 10 µM | Cc1ncsc1-c1ccc([C@H](C)NC(=O)[C@@H]2C[C@@H](O)CN2C(=O)[C@@H](NC(=O)CCCCn2nncc2CCOc2c(-c3csc(N4CCOCC4)n3)ccc(F)c2F)C(C)(C)C)cc1 [Example 4, (2S,4R)-1-((S)-2-(5-(5-(2-(2,3-difluoro-6-(2-morpholinothiazol-4-yl)phenoxy)ethyl)-1H-1,2,3-triazol-1-yl)pentanamido)-3,3-dimethylbutanoyl)-4-hydroxy-N-((S)-1-(4-(4-methylthiazol-5-yl)phenyl)ethyl)pyrrolidine-2-carboxamide]
5 | < 100 µM | Cc1ncsc1-c1ccc([C@H](C)NC(=O)[C@@H]2C[C@@H](O)CN2C(=O)[C@@H](NC(=O)CCC(=O)N[C@H]2C[C@H](Oc3c(-c4csc(N5CCOCC5)n4)ccc(F)c3F)C2)C(C)(C)C)cc1 [Example 5, N1-((1r,3S)-3-(2,3-difluoro-6-(2-morpholinothiazol-4-yl)phenoxy)cyclobutyl)-N4-((S)-1-((2S,4R)-4-hydroxy-2-(((S)-1-(4-(4-methylthiazol-5-yl)phenyl)ethyl)carbamoyl)pyrrolidin-1-yl)-3,3-dimethyl-1-oxobutan-2-yl)succinamide]
6 | < 200 µM | COc1cc(C(=O)NCC2CCN(C(=O)COc3c(-c4csc(N5CCOCC5)n4)ccc(F)c3F)CC2)ccc1NC(=O)[C@@H]1N[C@@H](CC(C)(C)C)[C@](C#N)(c2ccc(Cl)cc2F)[C@H]1c1cccc(Cl)c1F [Example 7, (2R,3S,4R,5S)-3-(3-chloro-2-fluorophenyl)-4-(4-chloro-2-fluorophenyl)-4-cyano-N-(4-(((1-(2-(2,3-difluoro-6-(2-morpholinothiazol-4-yl)phenoxy)acetyl)piperidin-4-yl)methyl)carbamoyl)-2-methoxyphenyl)-5-neopentylpyrrolidine-2-carboxamide]
7 | < 100 µM | COc1cc(C(=O)NCCN2CCN(C(=O)COc3c(-c4csc(N5CCOCC5)n4)ccc(F)c3F)CC2)ccc1NC(=O)[C@@H]1N[C@@H](CC(C)(C)C)[C@](C#N)(c2ccc(Cl)cc2F)[C@H]1c1cccc(Cl)c1F [Example 8, (2R,3S,4R,5S)-3-(3-chloro-2-fluorophenyl)-4-(4-chloro-2-fluorophenyl)-4-cyano-N-(4-((2-(4-(2-(2,3-difluoro-6-(2-morpholinothiazol-4-yl)phenoxy)acetyl)piperazin-1-yl)ethyl)carbamoyl)-2-methoxyphenyl)-5-neopentylpyrrolidine-2-carboxamide]
8 | < 200 µM | COc1cc(C(=O)N2CCC(NC(=O)COc3c(-c4csc(N5CCOCC5)n4)ccc(F)c3F)CC2)ccc1NC(=O)[C@@H]1N[C@@H](CC(C)(C)C)[C@](C#N)(c2ccc(Cl)cc2F)[C@H]1c1cccc(Cl)c1F [Example 9, (2R,3S,4R,5S)-3-(3-chloro-2-fluorophenyl)-4-(4-chloro-2-fluorophenyl)-4-cyano-N-(4-(4-(2-(2,3-difluoro-6-(2-morpholinothiazol-4-yl)phenoxy)acetamido)piperidine-1-carbonyl)-2-methoxyphenyl)-5-neopentylpyrrolidine-2-carboxamide]
9 | < 100 µM | COc1cc(C(=O)NCCOCCn2cc(CCOc3c(-c4csc(N5CCOCC5)n4)ccc(F)c3F)nn2)ccc1NC(=O)[C@@H]1N[C@@H](CC(C)(C)C)[C@](C#N)(c2ccc(Cl)cc2F)[C@H]1c1cccc(Cl)c1F [Example 10, (2R,3S,4R,5S)-3-(3-chloro-2-fluorophenyl)-4-(4-chloro-2-fluorophenyl)-4-cyano-N-(4-((2-(2-(4-(2-(2,3-difluoro-6-(2-morpholinothiazol-4-yl)phenoxy)ethyl)-1H-1,2,3-triazol-1-yl)ethoxy)ethyl)carbamoyl)-2-methoxyphenyl)-5-neopentylpyrrolidine-2-carboxamide]
